From patent US12178879B2, “Hemiasterlin derivative and antibody-drug conjugate thereof” (priority 2019, dated 2024)

Experiments:
porcine tubulin = target: T1, porcine tubulin (Sus scrofa, UniProt P02550+P02554); experiment: Activity for inhibiting microtubule polymerization using porcine tubulins; assay type: biochemical; conditions: for Microtubule polymerization rate (%): at 9.1 μM, 60 minutes after assay initiation, absorbance at 340 nm, 37° C.; for activity for inhibiting microtubule polymerization (in words): summary of Test Example 3
T1 construct: purchased Cytoskeleton Inc. BK006P
T1 sequence (P02550 whole entry): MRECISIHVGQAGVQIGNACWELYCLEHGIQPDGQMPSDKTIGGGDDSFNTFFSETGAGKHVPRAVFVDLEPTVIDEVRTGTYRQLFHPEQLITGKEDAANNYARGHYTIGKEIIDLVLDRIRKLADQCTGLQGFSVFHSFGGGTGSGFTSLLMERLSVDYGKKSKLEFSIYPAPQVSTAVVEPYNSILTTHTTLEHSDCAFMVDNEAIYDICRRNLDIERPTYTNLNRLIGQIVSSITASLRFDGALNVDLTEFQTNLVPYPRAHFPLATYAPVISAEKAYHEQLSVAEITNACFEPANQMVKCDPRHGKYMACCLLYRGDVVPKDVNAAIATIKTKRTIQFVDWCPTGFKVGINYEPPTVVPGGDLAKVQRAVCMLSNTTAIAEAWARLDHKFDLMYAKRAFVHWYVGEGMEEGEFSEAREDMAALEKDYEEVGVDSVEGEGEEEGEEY
T1 sequence (P02554 whole entry): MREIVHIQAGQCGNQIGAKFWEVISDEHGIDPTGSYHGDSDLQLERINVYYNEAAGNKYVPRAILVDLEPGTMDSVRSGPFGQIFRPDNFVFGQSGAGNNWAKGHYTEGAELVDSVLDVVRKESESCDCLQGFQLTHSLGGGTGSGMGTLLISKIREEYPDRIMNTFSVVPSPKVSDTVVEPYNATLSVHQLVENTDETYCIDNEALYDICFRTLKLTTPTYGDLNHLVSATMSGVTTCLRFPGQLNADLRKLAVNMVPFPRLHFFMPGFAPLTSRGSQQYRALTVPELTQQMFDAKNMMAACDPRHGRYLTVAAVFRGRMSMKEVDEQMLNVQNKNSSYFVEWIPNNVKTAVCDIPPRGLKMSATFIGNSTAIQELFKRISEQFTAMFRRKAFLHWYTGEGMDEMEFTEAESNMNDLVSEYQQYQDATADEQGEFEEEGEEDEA
Protocol: Using a tubulin polymerization inhibition assay kit (catalog number: BK006P) purchased from Cytoskeleton Inc., the polymerization inhibitory activity of compounds of Examples was evaluated in accordance with the protocol appended to the kit. To a 96 well microplate, 80 mM PIPES pH 6.9, 2 mM MgCl, 0.5 mM EGTA and 5% DMSO buffered solution of the compound to be evaluated was added in an amount of 10 μL for each well, and to these wells, 3 mg/mL porcine tubulin 80 mM PIPES pH 6.9, 2 mM MgCl, 0.5 mM EGTA, 1 mM GTP and 10.2% glycerol solution was added in an amount of 100 μL for each well. In order to examine a state in which tubulins polymerize over time, the absorbance at 340 nm was measured at 37° C., using a microplate reader. As the polymerization of tubulins progresses, the absorbance at 340 nm rises.
The tubulin polymerization inhibitory activity was evaluated based on the proportion of polymerized tubulins 60 minutes after the assay initiation. Specifically, the microtubule polymerization rate (%) was calculated by dividing the absorbance of tubulins that had polymerized at wells to which the compound had been added by the absorbance of tubulins that had polymerized at wells to which the compound had not been added, and multiplying the obtained value by 100.

Karpas-299 cells [1] = experiment: Cellular toxicity test (2), CellTiter-Glo; assay type: cell-based, human; conditions: for Cell remaining rate (%): 0.25 μM solution added 50 μL per well, 4 days, relative to addition of no compound; for cellular toxicity (in words): summary of Test Example 2
Protocol: Karpas-299 cells (European Collection of Authenticated Cell Cultures, hereinafter, ECACC), which are CD30 antigen-expressing cell lines and human lymphoma cell lines, were cultured in RPMI 1640 (GIBCO) containing 10% fetal bovine serum (MP Biomedicals) (hereinafter, referred to as “culture medium A” in this test). Karpas-299 cells were prepared to be 2×10^6 cells/mL in culture medium A, and were added to a 96 well microplate for cell culturing in an amount of 50 μL for each well. Each compounds prepared to be in a concentration of 0.25 μM with culture medium A was added to the microplate in an amount of 50 μL for each well, and culture was carried out at 37° C. under 5% CO2 for 4 days. After culturing, the microplate was taken out from the incubator, and was left at rest at room temperature for 10 minutes. To each well, 50 μL of CellTiter-Glo Luminescent Cell Viability Assay (Promega) was added, and the resultant mixture was stirred. This mixture was incubated at a dark place for 20 minutes, and luminescence was measured by using a microplate luminometer, thereby determining the percentage of the number of cells remaining after treatment with each compound to the number of cells remaining after treatment with addition of no compound.

Karpas-299 cells [2] = experiment: Cellular toxicity test (1), CellTiter-Glo; assay type: cell-based, human; conditions: 16 μg/mL solution added 50 μL per well, 4 days, relative to addition of no compound
Protocol: Karpas-299 cells were prepared to be 2×10^6 cells/mL in culture medium A, and were added to a 96 well microplate for cell culturing in an amount of 50 μL for each well. […] After culturing, the microplate was taken out from the incubator, and was left at rest at room temperature for 10 minutes. To each well, 50 μL of CellTiter-Glo Luminescent Cell Viability Assay (Promega) was added, and the resultant mixture was stirred.

Compound	Microtubule polymerization rate (%) (porcine tubulin)	activity for inhibiting microtubule polymerization (in words) (porcine tubulin)	Cell remaining rate (%) (Karpas-299 cells [1])	cellular toxicity (in words) (Karpas-299 cells [1])	Cell remaining rate (%) (Karpas-299 cells [2])
CN[C@H](C(=O)N[C@H](C(=O)N(C)[C@H](/C=C(\C)C(=O)NCCCCNC(=O)CCCCCN1C(=O)CC(SC[C@H](N)C(=O)O)C1=O)C(C)C)C(C)(C)C)C(C)(C)c1cn(C)c2ccccc12 (stereo partly drawn) [Comparative Example compound, reference compound]	0%	comparable activities for inhibiting microtubule polymerization	18.1%	strong cellular toxicity	
CN[C@H](C(=O)N[C@H](C(=O)N(C)[C@H](/C=C(\C)C(=O)N[C@H](CCC(=O)NCCCC[C@H](N)C(=O)O)C(=O)O)C(C)C)C(C)(C)C)C(C)(C)c1ccccc1 [Metabolite of Example ADC1]	1.7%	comparable activities for inhibiting microtubule polymerization	100%	weak cytotoxic activity	
Brentuximab					71.5%
